Patent EP0375449B1, “Benzopyran-type compounds” (BEECHAM GROUP PLC, priority 1988, dated 1990)

Key:
[1] = test system: Spontaneously hypertensive rats; assay: Antihypertensive activity: systolic blood pressure by tail cuff method; type: in vivo; conditions: maximum at 1-4 hours post dose
Method: Systolic blood pressures were recorded by a modification of the tail cuff method described by I.M. Claxton, M.G. Palfreyman, R.H. Poyser, R.L. Whiting, European Journal of Pharmacology, 37, 179 (1976). A W+W BP recorder, model 8005 was used to display pulses. Prior to all measurements rats were placed in a heated environment (33.5 ± 0.5 °C) before transfer to a restraining cage. Each determination of blood pressure was the mean of at least 5 readings. Spontaneously hypertensive rats (ages 12-18 weeks) with systolic blood pressures >180 mmHg were considered hypertensive.

trachea = assay: Bronchodilator activity: relaxation of isolated tracheal spirals; type: tissue-based, guinea pigs; conditions: Cavia porcellus; fall in resting tension as percentage of total relaxation evoked by 10⁻³M isoprenaline; guinea pig tracheal spirals, Krebs solution 37°C; read-out: IC₅₀
Method: Male guinea pigs (300-600g) were stunned by a blow to the head and bled from the carotid artery. The trachea was exposed, dissected free of connective tissue, and transferred to oxygenated Krebs solution at 37 °C. Next, spirals (2 per trachea) were prepared by cutting the whole trachea spirally along its longitudinal axis and then dividing this spiral lengthwise. Each preparation was mounted, using silk thread, in a 10ml organ bath filled with krebs solution at 37 °C and bubbled with 5% CO₂ with O₂. The resting tension of the preparations was set at 2g and changes in muscle tension were monitored isometrically by means of a UFI (2oz) force and displacement transducer (Ormed Ltd) connected to a Linseis pen recorder. All preparations were allowed to equilibrate for 60 minutes. During this equilibration period the preparations were washed by upward displacement at 15 minute intervals and, if necessary, the resting tension was readjusted to 2g using a mechanical micromanipulator system.
Once a steady resting tension had been obtained, the preparations were dosed simultaneously with the test compound (10⁻⁸-2x10⁻⁵M), and finally a maximum relaxation achieved by addition of 10⁻³M isoprenaline. The fall in tension evoked by the test compound was expressed as a percentage of the total relaxation evoked in the presence of 10⁻³ isoprenaline. […]

| SMILES | % b.p. fall ([1]; Dose 3.0 mg/kg) | % b.p. fall ([1]; Dose 0.3 mg/kg) | further results |
| --- | --- | --- | --- |
| CC(C)(C)OC(=O)N[C@H]1[C@H](O)c2cc(C#N)ccc2OC1(C)C (relative stereo) [Example E1, trans-6-Cyano-2,2-dimethyl-3,4-dihydro-3-(t-butoxycarbonyl)amino-2H-1-benzopyran-4-ol] | 30% |  |  |
| CC1(C)Oc2ccc(C#N)cc2[C@@H](O)[C@@H]1NC(=O)c1ccc(F)cc1 (relative stereo) [Example E3, trans-6-Cyano-2,2-dimethyl-3,4-dihydro-3-(4-fluorobenzoylamino)-2H-1-benzopyran-4-ol] | 42% |  |  |
| CC(C)(C)NC(=O)N[C@H]1[C@H](O)c2cc(C#N)ccc2OC1(C)C (relative stereo) [Example E5, trans-6-Cyano-2,2-dimethyl-3,4-dihydro-3-(t-butylureido)-2H-1-benzopyran-4-ol] |  | ≧40% | IC50 (trachea): 2.8 µM |
| CC(C)NC(=O)N[C@H]1[C@H](O)c2cc(C#N)ccc2OC1(C)C (relative stereo) [Example E14, trans-6-Cyano-2,2-dimethyl-3,4-dihydro-3-(isopropylureido)-2H-1-benzopyran-4-ol] |  | 22% |  |
| CC(C)(C)C(=O)N[C@H]1[C@H](O)c2cc(C#N)ccc2OC1(C)C (relative stereo) [Example E21, trans-6-Cyano-2,2-dimethyl-3,4-dihydro-3-trimethylacetylamino-2H-1-benzopyran-4-ol] |  |  | % b.p. fall ([1]; Dose 1.0 mg/kg): 36% |
